These results are taken from patent US6110962A, “11-aryl-benzo[B]naphtho[2,3-D]furans and 11-aryl-benzo[B]naphtho[2,3-D]thiophenes useful in the treatment of insulin resistance and hyperglycemia” (American Home Products Corporation, priority 1999, dated 2000).

pIC50: −log10 of the molar value. Where two headings read alike, the source gives them in different places.

For experiment [1], the system named is rat hepatic microsomal PTPases. As to conditions: PTPase activity, compound at 50 μM.
In another experiment the test system is diabetic (ob/ob) mice. Kind of experiment: Blood glucose lowering activity in diabetic (ob/ob) mice. Type of experiment: in vivo, mouse. Conditions: for change in vivo at 25 mg/kg / change in vivo at 100 mg/kg / change in vivo at 75 mg/kg / change in vivo at 10 mg/kg / change in vivo at 95 mg/kg: Mus musculus, po, ob/ob mice. The procedure:
The blood glucose lowering activity of representative compounds of this invention were determined in an in vivo standard procedure using diabetic (ob/ob) mice. The procedures used and results obtained are briefly described below. The non-insulin dependent diabetic (NIDDM) syndrome can be typically characterizes by obesity, hyperglycemia, abnormal insulin secretion, hyperinsulinemia and insulin resistance. […] In each test procedure, mice [Male or female ob/ob (C57 B1/6J) and their lean litermates (ob+ or +/+, Jackson Laboratories) ages 2 to 5 months (10 to 65 g)] of a similar age were randomized according to body weight into 4 groups of 10 mice. The mice were housed 5 per cage and are maintained on normal rodent chow with water ad libitum. Mice received test compound daily by gavage (suspended in 0.5 ml of 0.5% methyl cellulose); dissolved in the drinking water; or admixed in the diet. […] The dose is calculated based on the fed weekly body weight and is expressed as active moiety. […] Control mice received vehicle only. On the morning of Day 4, 7 or 14 two drops of blood (approximetly 50 ul) were collected into sodium fluoride containing tubes either from the tail vein or after decapitation. For those studies in which the compound was administered daily by gavage the blood samples were collected two hours after compound administration. The plasma was isolated by centrifugation and the concentration of glucose is measured enzymatically on an Abbott V. P. Analyzer. […] Analysis of variance followed by Dunett's Comparison Test (one-tailed) are used to estimate the significant difference between the plasma glucose values from the control group and the individual compound treated groups (CMS SAS Release 5.18).

The target in the next experiment is T1, Human recombinant PTP1B (Homo sapiens, UniProt P18031).
T1 construct: made in house
T1 sequence (P18031 1-435): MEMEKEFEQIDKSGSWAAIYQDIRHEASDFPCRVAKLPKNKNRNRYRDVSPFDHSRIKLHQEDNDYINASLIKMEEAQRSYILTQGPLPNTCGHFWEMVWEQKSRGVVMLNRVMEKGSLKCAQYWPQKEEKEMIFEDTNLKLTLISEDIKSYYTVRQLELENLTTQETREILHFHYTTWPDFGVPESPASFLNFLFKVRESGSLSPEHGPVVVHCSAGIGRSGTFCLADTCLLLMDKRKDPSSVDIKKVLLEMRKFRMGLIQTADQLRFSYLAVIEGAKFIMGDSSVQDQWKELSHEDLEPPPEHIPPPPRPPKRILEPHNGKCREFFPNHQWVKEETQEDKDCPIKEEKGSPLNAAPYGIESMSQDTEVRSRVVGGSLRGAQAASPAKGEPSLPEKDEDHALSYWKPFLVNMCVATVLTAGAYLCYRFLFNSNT
Type of experiment: biochemical. Conditions: read-out: IC50.

Setting [2] is: 96 h, plasma glucose Day 4, 7 or 14, read-out: % Change Glucose from Vehicle.
Setting [3] is: read-out: % Change Insulin from Vehicle.

A word on the pIC50: it is −log10 of the IC50, conventionally taken in molar units. `O=C(O)C(Cc1ccc(F)cc1)Oc1c(Br)cc(-c2c3ccccc3c(Br)c3sc4ccccc4c23)cc1Br` (stereo not drawn) [Example 155, 2-[2,6-Dibromo-4-(6-bromo-benzo[b]naphtho[2,3-d]thiophen-11-yl)-phenoxy]-3-(4-fluoro-phenyl)-propionic acid]: the “% Change from Control” value in experiment [1] is listed as -82.25%. For the same compound, the change in vivo at 25 mg/kg was -28.9% in the experiment on diabetic (ob/ob) mice (setting [2]) and -63.2% in the experiment on diabetic (ob/ob) mice (setting [3]). Besides, the pIC50 on Human recombinant PTP1B is 7.25.
In the case of `Brc1cc(-c2c3ccccc3c(Br)c3sc4ccccc4c23)cc(Br)c1O[C@H](Cc1ccccc1)c1nnn[nH]1` [Example 172, (R)-5-{1-[2,6-Dibromo-4-(6-bromo-benzo[b]naphtho[2,3-d]thiophen-11-yl)-phenoxy]-2-phenyl-ethyl}-1 H-tetrazole], the “% Change from Control” value in experiment [1] is given as -70.95%. In addition, the change in vivo at 100 mg/kg with diabetic (ob/ob) mice (setting [2]) is 5.62%; in the experiment on diabetic (ob/ob) mice (setting [3]), -52%. In addition, the pIC50 at Human recombinant PTP1B was 7.12.
Turning to `CC1(COc2ccc(CC3SC(=O)NC3=O)cc2)CCCCC1` (stereo not drawn) [Ciglitazone, 5-(4-(1-methylcyclohexylmethoxy)benzyl)-2,4-dione, reference compound], the change in vivo at 100 mg/kg is -43% in the experiment with diabetic (ob/ob) mice (setting [2]) and -39% in the experiment with diabetic (ob/ob) mice (setting [3]). Besides, in the experiment on diabetic (ob/ob) mice (positive control, 100 mg/kg/day), the “lowering in plasma glucose (in words)” value was “significant lowering in plasma glucose”.
For `CCCCC(Oc1c(Br)cc(-c2c3ccccc3c(Br)c3sc4ccccc4c23)cc1Br)C(=O)O` (stereo not drawn) [Example 123, 2-[2,6-Dibromo-4-(6-bromo-benzo[b]naphtho[2,3-d]thiophen-11-yl)-phenoxy]-hexanoic acid], the “% Change from Control” value in experiment [1] was -87.44%. Also, the values for the change in vivo at 75 mg/kg with diabetic (ob/ob) mice (setting [2]) and with diabetic (ob/ob) mice (setting [3]) were -24% and -40.9%, respectively. The pIC50 at Human recombinant PTP1B is 7.09.
Turning to `O=C(O)C(Cc1c[nH]c2ccccc12)Oc1c(Br)cc(-c2c3ccccc3c(Br)c3sc4ccccc4c23)cc1Br` (racemic) [Example 122, (R,S)-2-[2.6-Dibromo-4-(6-bromo-benzo[b]naphtho[2,3-d]thiophen-11-yl)-phenoxy]-3-(1 H-indol-3-yl)-propionic acid], in experiment [1], the “% Change from Control” value is -85.46%. Moreover, the values for the change in vivo at 100 mg/kg in the experiment on diabetic (ob/ob) mice (setting [2]) and in the experiment with diabetic (ob/ob) mice (setting [3]) were -28.1% and -37.4%, respectively. For the same compound, on Human recombinant PTP1B, the pIC50 is 7.44.
As to `C[C@@H](Oc1c(Br)cc(-c2c3ccccc3c(Br)c3sc4ccccc4c23)cc1Br)C(=O)O` [Example 121, (R)-2-[2,6-Dibromo-4-(6-bromo-benzo[b]naphtho[2,3-d]thiophen-11-yl)-phenoxy]-propionic acid], the “% Change from Control” value in experiment [1] is listed as -74.70%. Further, the results for the change in vivo at 10 mg/kg in the experiment with diabetic (ob/ob) mice (setting [2]) and in the experiment on diabetic (ob/ob) mice (setting [3]) were 1.37% and -41.8%, respectively. The change in vivo at 100 mg/kg in the experiment with diabetic (ob/ob) mice (setting [2]) was -54.6%; in the experiment with diabetic (ob/ob) mice (setting [3]), -87.8%. Besides, on Human recombinant PTP1B, the pIC50 is 6.74.
With `Cc1cc(-c2c3ccccc3c(C)c3sc4ccccc4c23)cc(C)c1O[C@H](Cc1ccccc1)C(=O)O` [Example 138, (R)-2-[2,6-Dimethyl-4-(6-methyl-benzo[b]naphtho[2,3-d]thiophen-11-yl)-phenoxy]-3-phenyl-propionic acid], the “% Change from Control” value in experiment [1] is on record as -69.13%. Also, the results for the change in vivo at 25 mg/kg with diabetic (ob/ob) mice (setting [2]) and in the experiment with diabetic (ob/ob) mice (setting [3]) were -13.8% and -91.9%, respectively. At Human recombinant PTP1B, the pIC50 was 6.20.
Regarding `O=C(O)[C@@H](CCN1C(=O)c2ccccc2C1=O)Oc1c(Br)cc(-c2c3ccccc3cc3sc4ccccc4c23)cc1Br` [Example 146, (R)-2-(4-Benzo[b]naphtho[2,3-d]thiophen-11-yl-2,6-dibromo-phenoxy)-4-(1,3-dioxo-1 , 3-dihydro-isoindol-2-yl)-butyric acid], in experiment [1], the “% Change from Control” value is recorded as -71.95%. For the same compound, the change in vivo at 100 mg/kg in the experiment with diabetic (ob/ob) mice (setting [2]) was -45.8%; in the experiment with diabetic (ob/ob) mice (setting [3]), -56.2%. The pIC50 at Human recombinant PTP1B is 7.19.
Consider `O=C(O)[C@@H](Cc1ccccc1)Oc1c(Br)cc(-c2c3c(c(Br)c4ccccc24)S(=O)(=O)c2ccccc2-3)cc1Br` [Example 189], for which, in experiment [1], the “% Change from Control” value was -89.32%. Further, the change in vivo at 100 mg/kg with diabetic (ob/ob) mice (setting [2]) is -46.8%; with diabetic (ob/ob) mice (setting [3]) it was 11%. Also, the pIC50 at Human recombinant PTP1B is 5.86.
For `O=C(O)COc1ccc(-c2c3ccccc3c(Br)c3sc4ccccc4c23)cc1` [Example 87], the “% Change from Control” value in experiment [1] is -63.18%. Besides, the change in vivo at 100 mg/kg in the experiment on diabetic (ob/ob) mice (setting [2]) was -15.8%; in the experiment with diabetic (ob/ob) mice (setting [3]), -88%. In addition, on Human recombinant PTP1B, the pIC50 was 5.77.
For the compound `O=C(O)[C@@H](Cc1ccccc1)Oc1c(Br)cc(-c2c3ccccc3c(Cl)c3sc4ccccc4c23)cc1Br` [Example 127, (R)-2-{2,6-Dibromo-4-(6-chloro-benzo[b]naphtho[2,3-d]thiophen-11-yl)-phenoxy}-3-phenyl-propionic acid], the “% Change from Control” value in experiment [1] is listed as -37.08%. Besides, the change in vivo at 25 mg/kg in the experiment with diabetic (ob/ob) mice (setting [2]) is -18.8%; with diabetic (ob/ob) mice (setting [3]) it was -76.5%. For the same compound, at Human recombinant PTP1B, the negative-log IC50 (pIC50) was 7.19.
Regarding `COc1c2ccccc2c(-c2cc(Br)c(O[C@H](Cc3ccccc3)C(=O)O)c(Br)c2)c2c1sc1ccccc12` [Example 126, (R)-2-[2,6-Dibromo-4-(6-methoxy-benzo[b]naphtho[2,3-d]thiophen-11-yl)-phenoxy]-3-phenyl-propionic acid], the “% Change from Control” value in experiment [1] was -78.77%. Also, the change in vivo at 25 mg/kg in the experiment with diabetic (ob/ob) mice (setting [2]) is -28.6%; with diabetic (ob/ob) mice (setting [3]), -62.4%. Moreover, the negative logarithm of the IC50 (pIC50) on Human recombinant PTP1B is 6.53.
`O=C(O)[C@@H](Cc1ccccc1)Oc1c(F)ccc(-c2c3ccccc3c(Br)c3sc4ccccc4c23)c1F` [Example 203, (R)-2-[]3-(6-Bromo-benzo[b]naphtho[2,3-d]thiophen11-yl)-2.6-difluoro-phenoxyl-3-phenyl-propionic acid]: in experiment [1], the “% Change from Control” value is reported as -86.47%. The change in vivo at 100 mg/kg was -16.1% in the experiment on diabetic (ob/ob) mice (setting [2]) and -91% in the experiment on diabetic (ob/ob) mice (setting [3]). The pIC50 on Human recombinant PTP1B is 6.40.
Turning to `Oc1cc(-c2c3ccccc3c(Br)c3sc4ccccc4c23)cc(Br)c1O` [Example 70, 3-Bromo-5-(6-bromo-benzo[b]naphtho[2,3-d]thiophen-11-yl)-benzene-1,2-diol], the “% Change from Control” value in experiment [1] is -29.03%. In addition, the change in vivo at 25 mg/kg in the experiment on diabetic (ob/ob) mice (setting [2]) was -28.6%; with diabetic (ob/ob) mice (setting [3]), 45.7%. In addition, the pIC50 at Human recombinant PTP1B was 7.13.
Consider `O=C(O)[C@@H](Cc1ccccc1)Oc1c(I)cc(-c2c3ccccc3cc3sc4ccccc4c23)cc1I` [Example 131], for which the “% Change from Control” value in experiment [1] is recorded as -66.21%. The change in vivo at 25 mg/kg in the experiment on diabetic (ob/ob) mice (setting [2]) is -3.63%; in the experiment on diabetic (ob/ob) mice (setting [3]) it was -67.5%.
Take `O=C(O)[C@@H](Cc1ccccc1)Oc1c(Br)cc(-c2c3ccccc3c(C(F)(F)F)c3sc4ccccc4c23)cc1Br` [Example 125, (R)-2-[2,6-Dibromo-4-(6-trifluoromethyl-benzo[b]naphtho[2,3-d]thiophen-11-yl)-phenoxy]-3-phenyl-propionic acid]: the “% Change from Control” value in experiment [1] is recorded as -73.96%. Further, the change in vivo at 95 mg/kg in the experiment on diabetic (ob/ob) mice (setting [2]) was -27.6%; in the experiment on diabetic (ob/ob) mice (setting [3]) it was -89.7%.
Turning to `O=C(O)COc1c(-c2ccccc2)cc(-c2c3ccccc3cc3sc4ccccc4c23)cc1-c1ccccc1` [Example 191], in the experiment with diabetic (ob/ob) mice (setting [2]), the change in vivo at 10 mg/kg was -22.8% and the change in vivo at 25 mg/kg was -36.5%. Further, in the experiment on diabetic (ob/ob) mice (setting [3]), the change in vivo at 25 mg/kg was -64.3%.
